The source of these data is patent US11358965B2, “EGFR dimer disruptors and use of the same” (THE REGENTS OF THE UNIVERSITY OF MICHIGAN, priority 2018, dated 2022).

One data set deals with COLO 205. Nature of the data set: NCI 60 cell line screen, COLO 205. To be noted: Colon Cancer. The format is cell-based, human. The protocol:
(§1) The activity of Compound 8C was tested against 60 different human tumor cell lines at the National Cancer Institute, using the standard NCI 60 screening protocol.

Another data set relates to HCC827-AZR. Nature of the data set: Clonogenic survival assay, HCC827-AZR. Particulars: read-out: IC50 and IC90. The format is cell-based.
The subject of the next data set is MCF7. Nature of the data set: NCI 60 cell line screen, MCF7. Particulars: Breast Cancer. In kind it is cell-based, human. The protocol:
as §1

Data set [1] can be described thus: Pharmacokinetics in tumor and plasma, NCI-H1975 xenograft mice. To be noted: for half-life: nude, mouse, ip. In kind it is in vivo, nude mice. As to the method:
The IC50 and IC90 for PC9-AZR, and HCC827-AZR, range from ˜1.5 to ˜4 μM (see FIG. 7A). It is interesting to note that the peak plasma concentration was 5.4±1.5 μM for 30 minutes. […] Prolonged drug accumulation in tumors despite rapid systemic clearance is ideal for therapeutic use. The data at the 24 hour time point indicate that the agent may be suitable for daily administration. After observing selective accumulation of Compound 8C in tumors injected i.p., it was determined if Compound 8C is orally available. For oral administration, Compound 8C was formulated in 20% tween 80 in PBS (v/v) after brief sonication. Mice received 100 mg/kg by oral gavage. The concentrations of Compound 8C in tumor and plasma samples at 7 hours, 15 hours and 24 hours were determined and are plotted in FIG. 8B.
For intraperitoneal injection Compound 8C was formulated at 10 mg/mL in PBS with 5% DMSO by adjusting the pH to 5.5. For oral administration, a homogenous suspension was prepared in 20% tween 80 upon brief sonication. Initially, a single 100 mg/kg dose of Compound 8C was given i.p. (FIG. 8A) or gavaged into nude mice bearing human NCI-H1975 tumor xenografts (>150 mm3) (FIG. 8B). Mice were euthanized at time 0, 30 minutes, 1 hour, 3 hours, 7 hours, 15 hours, and at 24 hours. Tumor and plasma samples were collected. In case of mice orally gavaged, plasma and tumor samples were collected only at 7 hours, 15 hours and at 24 hours. The concentration of Compound 8C in plasma and tumor was determined and the resulting data are plotted in terms of molar concentration.

For a further data set, the system named is cells. Kind of data set: Cell Titer Blue % cell viable (24 hrs). In kind it is cell-based. Particulars: 24 h, Conc 3.75 μM. A digest of the protocol: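 Cell viability was measured with CellTiter-Blue® reagent according to the manufacturer's protocol. Cells were seeded at 10,000 per well in 96-well plates, in quadruplicate, and treated with compound one day later. Viable cells reduce the redox dye resazurin to fluorescent resorufin. Fluorescence was read at 590 nm emission after excitation at 560 nm and compared with vehicle-treated controls.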

For the next data set, the system named is UMCC92 cells. Nature of the data set: Clonogenic IC50, UMCC92. The format is cell-based.
In another data set the test system is RKO cells. Nature of the data set: Clonogenic IC50, RKO. The format is cell-based. To be noted: Homo sapiens.
The subject of data set [2] is isogenic 6-Ba/F3 cell types (TKI sensitive and resistant). Nature of the data set: Activity in isogenic Ba/F3 cell types.
Another data set relates to MCR5 cells. Kind of data set: Clonogenic IC50, MCR5. In kind it is cell-based. Particulars: MCR5, MCR5.

Where two headings read alike, the source gives them in different places. Bounds are passed on as bounds.

Take `CN1CCC2(CC1)N=C(SCC(=O)Nc1cnc3ccccc3c1)C(c1ccc(Br)cc1)=N2` [Compound 8C, 2-((3-(4-bromophenyl)-8-methyl-1,4,8-triazaspiro[4.5]deca-1,3-dien-2-yl)thio)-N-(quinolin-3-yl)acetamide]: the figures for the “Percent Growth” value with COLO 205 and with MCF7 were −76.2% and −42.7%, respectively. In addition, the IC50 in the data set with HCC827-AZR is 1500 to 4000 nM; in the data set on UMCC92 cells, 0.2 µM; in the data set with RKO cells, 1.6 µM; with MCR5 cells, 18.6 µM. Further, the peak plasma concentration in data set [1] (100 mg/kg i.p., single dose, for 30 minutes) is 5.4 ± 1.5 µM. Besides, in [1] (100 mg/kg i.p., single dose, for ≥7 hours), the “peak concentration achieved in the tumor” value came out at 69.7 ± 15.68 µM. Also, the tumor accumulation result in [1] (i.p. injection) is on record as “selectively accumulates in the tumor”. Also, the half-life is 7.96 h in data set [1] (plasma, 100 mg/kg i.p., single dose, read-out: plasma half-life (converted)) and above 24 h in data set [1] (tumor, 100 mg/kg i.p., single dose, read-out: half-life in the tumor). The same compound displayed a viability at 3.75 µM in the data set with cells of 68%. Also, the “activity in each Ba/F3 cell line” value in data set [2] is on record as “active in the nanomolar range”.

One may read the IC50 as the concentration that inhibits the measured activity by half. As usually defined, the half-life is the time needed for the level to fall by half in the phase considered. Broadly, the viability is a read-out of living cells in per cent, often relative to untreated cells. Low values mean a greater loss of cells, high ones better survival.
